Values joined by “and” are separate entries in the source; they are usually repeats but may differ in a detail not shown here. Equal values may be shown once.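 Method: 48-hour compound exposure of cells in 96-well plates, five concentrations, linear interpolation of endpoints. The concentration for 50% growth inhibition is given as GI50. TGI denotes the concentration required for complete inhibition of growth.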
Legend:
Assay in all cases: NCI-60 cell line screen, 48 h
CAKI-1 renal = system: CAKI-1 renal
COLO 205 colon = system: COLO 205 colon
HOP-62 NSCLC = system: HOP-62 NSCLC
HS 578T breast = system: HS 578T breast
OVCAR-5 ovarian = system: OVCAR-5 ovarian
SNB-75 CNS = system: SNB-75 CNS
SR leukemia = system: SR leukemia
SW-620 colon = system: SW-620 colon
TK-10 renal = system: TK-10 renal
UACC-257 melanoma = system: UACC-257 melanoma

SMILES	GI50 (CAKI-1 renal) [µM]	TGI (CAKI-1 renal)	GI50 (COLO 205 colon) [µM]	GI50 (HOP-62 NSCLC) [µM]	TGI (HOP-62 NSCLC)	GI50 (HS 578T breast) [µM]	TGI (HS 578T breast)	GI50 (OVCAR-5 ovarian) [µM]	TGI (OVCAR-5 ovarian)	GI50 (SNB-75 CNS) [µM]	TGI (SNB-75 CNS) [µM]	GI50 (SR leukemia) [µM]	TGI (SR leukemia)	GI50 (SW-620 colon) [µM]	TGI (SW-620 colon)	GI50 (TK-10 renal) [µM]	TGI (TK-10 renal)	GI50 (UACC-257 melanoma) [µM]	TGI (UACC-257 melanoma)	TGI (COLO 205 colon)
NC(N)=N/N=C/c1c(-c2ccncc2)nc2sc(Cl)cn12	18.1	34.7 µM	4.21	15.2	37.2 µM	18.8	41.7 µM	7.1	21.4 µM	4.89	18.9	2.24	4.97 µM	7.34	18 µM	5.26	10.9 µM	21.5	40.6 µM	–
CCN(CC)CCOc1ccc2c(C)c(C(=O)OC)oc2c1C(=O)/C=C/c1ccc(OC)cc1	3.82	10.7 µM	4.03	28.5	> 55.6 µM	24.1	51.4 µM	2.32	6.99 µM	2.81	8.44	0.565	2.95 µM	22.7	47.7 µM	1.94	5.14 µM	19.8	36.9 µM	–
COc1cccc(C2C(C#N)=C(N)Oc3cc4c(cc32)OCO4)c1 (centres undefined)	0.0409	42.6 µM	0.0492	0.0501	27.2 µM	0.0316	25.5 µM	0.661	> 100 µM	0.0275	46.5	0.0291	27.8 µM	0.0369	> 63.2 µM	0.728	48.4 µM	0.0471	28.1 µM	0.325 µM
Cc1ccc(C2=C(Cl)C(=O)C(c3ccc(C)cc3)=C(Cl)C2=O)cc1	–	> 100 µM	–	–	> 100 µM	–	> 100 µM	–	> 100 µM	–	> 100	–	> 100 µM	–	> 100 µM	–	> 100 µM	–	> 100 µM	> 100 µM
O=C(O)Cn1ccc(=O)c2cc([N+](=O)[O-])ccc21	–	> 100 µM	–	–	> 100 µM	–	> 100 µM	–	> 100 µM	–	> 100	–	> 100 µM	–	> 100 µM	–	> 100 µM	–	> 100 µM	> 100 µM
O=C(Oc1ccc2c(c1)CN(Cc1ccccc1)CO2)c1ccccc1	–	37.8 µM	–	–	38.6 µM	–	61.5 µM	–	33.6 µM	–	32.5	–	69.2 µM	–	56.4 µM	–	29.8 µM	–	29.5 µM	31 µM
COc1cc(/C=C2\C(=O)N(C)c3ccccc32)cc(OC)c1OC	17.1	80.9 µM	17.7	20.2	54 µM	27.4	> 100 µM	25.2	70.2 µM	11.5	70	6.26	39.7 µM	13.4	> 100 µM	31.1	> 100 µM	21.4	55 µM	> 100 µM
C=C(Cl)[C@@](Cl)(CBr)CC[C@@H](Br)C(C)(C)Cl	1.22	4.9 µM and 1.06 µM	0.776	–	0.606 µM and 0.304 µM	0.208	0.741 µM and 2.1 µM	2.45	7.39 µM and 3.22 µM	1.35	–	23.1	> 100 µM and 79.4 µM	0.778	–	0.228	0.545 µM and 0.679 µM	–	6.2 µM and 1.83 µM	–
Cn1ccnc1C(=O)/C=C/c1ccc(C(=O)Nc2c(F)c(F)c(F)c(F)c2F)cc1	1.53	3.11 µM	1.82	2.77	8.71 µM	2.1	6.44 µM	1.82	3.9 µM	1.33	2.69	0.339	2.26 µM	1.19	2.86 µM	1.76	3.69 µM	3.1	10.4 µM	3.63 µM
Fc1ccc(-c2nn3c(COc4ccc(Cl)cc4)nnc3s2)cc1Oc1ccccc1	34.9	> 100 µM	41.8	16.6	35.6 µM	22.4	61.4 µM	24.5	> 59.1 µM	61	> 100	> 100	> 100 µM	48.4	> 100 µM	13.8	30.3 µM	41.6	> 100 µM	> 61.8 µM
N#CC(NC(=O)CCl)=C(Cl)Cl	1.69	3.14 µM	1.44	2.15	4.83 µM	3.46	17.1 µM	1.96	3.47 µM	1.63	4.27	0.702	2.68 µM	1.44	3.49 µM	1.74	3.4 µM	1.55	3.09 µM	2.99 µM
CCCCCCCCCCCCOC1C(C(CC(=O)N2CCN(Cc3ccc4c(c3)OCO4)CC2)NS(=O)(=O)c2cc(Cl)cc(Cl)c2)OC2OC(C)(C)OC21 (centres undefined)	> 100	> 100 µM	11.7	86.5	> 100 µM	9.17	> 68.9 µM	6.49	> 100 µM	> 45	> 100	3.85	47.4 µM	16.4	> 100 µM	58	> 100 µM	59.1	> 100 µM	> 78.3 µM
CC1=C2[C@@H](CC1)[C@]1(C)O[C@@](C3CC3)(C[C@H]1OC(=O)CO)[C@H]2OC(=O)/C=C/c1ccccc1	10.9	24 µM	17.9	15.4	30.2 µM	< 0.0153	0.845 µM	17.5	36.5 µM	12.6	30.5	13.5	39.2 µM	19.1	36.7 µM	18.7	33.8 µM	17.7	32.9 µM	35.7 µM
C#CC#CC#CC#CC#CC#CC#CC#CC[C@@H]1OC[C@@H](COC(=O)O[C@@H](C(=O)O[C@H]2C[C@@]3(O)[C@@H](OC(=O)c4ccccc4)[C@@H]4[C@]5(OC(C)=O)CO[C@@H]5C[C@H](O)[C@@]4(C)C(=O)[C@H](OC(C)=O)C(=C2C)C3(C)C)[C@@H](NC(=O)c2ccccc2)c2ccccc2)O1	0.477	> 33.3 µM	0.181	1.13	> 33.3 µM	0.239	> 8.14 µM	0.333	> 33.3 µM	0.0599	0.469	0.16	> 33.3 µM	0.188	> 33.3 µM	2.25	> 33.3 µM	> 15.7	> 33.3 µM	> 33.3 µM
CC1OC(OC2C(O[C@H]3CC[C@@]4(C)C(=CC[C@H]5[C@@H]6C[C@@H]7O[C@]8(CC[C@@H](C)CO8)[C@@H](C)[C@@H]7[C@@]6(C)CC[C@@H]54)C3)OC(CO)C(OC3OC(CO)C(O)C3O)C2O)C(O)C(O)C1O (some centres undefined)	0.602	1.76 µM and 1.86 µM	0.381	1.13	1.84 µM and 2.34 µM	–	1.78 µM and 2.24 µM	1.32	1.53 µM and 2.59 µM	–	1.62	–	2.25 µM	0.195	2.57 µM and 0.419 µM	–	2.85 µM and 2.24 µM	1.14	1.71 µM and 2.35 µM	1.24 µM and 1.29 µM
CN(C)c1ccc(C2CC(C)(O)Oc3cc4c(cc32)OCO4)cc1 (centres undefined)	–	> 100 µM	–	–	> 100 µM	–	> 100 µM	–	> 100 µM	–	75.1	–	> 100 µM	–	> 100 µM	–	> 100 µM	–	> 100 µM	50.3 µM
CCSc1ncc(Br)c(Sc2nc(N)nc3nc[nH]c23)n1	3.43	> 100 µM	15.1	1.64	24.4 µM	7.47	> 100 µM	5.83	> 100 µM	1.57	14	1.83	> 100 µM	17.7	> 100 µM	2.55	25.9 µM	12.4	> 100 µM	52.6 µM
Nc1ncnc2c1nc(Cl)n2C1OC(CO)C(O)C1O (centres undefined)	–	> 100 µM	–	–	> 100 µM	–	> 100 µM	–	98.6 µM	–	> 56.6	–	> 100 µM	–	> 100 µM	–	> 32.7 µM	–	> 100 µM	> 100 µM
